Key:
LNCaP cells = experiment: MTT cytotoxicity assay, LNCaP cells; type: cell-based, human; settings: for IC50: MTT, 12 hours treatment, further 48 hours, [Pt] = 25 * [Doce]
Protocol: (§1) The ability of the targeted drug releasing construct nanoparticles to promote cell death was determined using the MTT assay using human prostate cancer LNCaP and PC3 cells and compared against the standard compounds cisplatin and the Pt(IV)-monosuccinate prodrug. Human prostate cancer LNCaP and PC3 cells were obtained from the ATCC. […] The cells were incubated at 37° C. in 5% CO2 in RPMI growth medium supplemented with 10% fetal bovine serum and 1% penicillin/streptomycin. The cells were passaged every 3 to 4 days and restarted from the frozen stock upon reaching passage number 20. Cytotoxic activity of the constructs was evaluated using the MTT assay. Solutions of the different constructs were freshly prepared in sterile PBS before use. All platinum constructs were quantified by atomic absorption spectroscopy. LNCaP and PC3 cells were seeded on a 96-well plate in 100 μL RPMI media and incubated for 24 hours.
(§2) The cells were then treated with different constructs at varying concentrations and incubated for 12 hours at 37° C. Fresh medium was replaced after 12 hours incubation with nanoparticles, and the cells were incubated for a further 48 hours. The cells were then treated with 20 μL of 3-(4,5-dimethylthiazol-2-yl)-2,5-diphenyltetrazolium bromide (MTT) (5 mg/mL in PBS) and incubated for 5 hours. The medium was removed, the cells were lysed by adding 100 μL of DMSO, and the absorbance of the purple formazan was recorded at 550 nm using a microplate spectrophotometer. Each sample was assayed in triplicate in three independent experiments for each cell line.

PC3 cells = experiment: MTT cytotoxicity assay, PC3 cells; type: cell-based, human; settings: for IC50: MTT, 12 hours treatment, further 48 hours, [Pt] = 25 * [Doce]
Protocol: as §1, §2

Row | Molecule | IC50 (LNCaP cells) | IC50 (PC3 cells) | effect on viability (LNCaP cells; LNCaP cells, compared with cisplatin, PolyPt-NP, PolyPt-NP-Apt) | effect on viability (PC3 cells; PC3 cells, compared with cisplatin, PolyPt-NP, PolyPt-NP-Apt)
1 | N.N.[Cl][Pt][Cl] [Cisplatin] | > 5 µM | 9.9 µM | – | –
2 | c,c,t[Pt(NH3)Cl2(OH)(succinate)] [Pt-Monosuccinate] | 106 µM | 36 µM | least effect on viability | least effect on viability

Source: US20130017265A1, “PARTICLES FOR MULTIPLE AGENT DELIVERY” (MASSACHUSETTS INSTITUTE OF TECHNOLOGY, priority 2009, published 2013)
